Test results reported in PMC5733478, “A Non-imaging High Throughput Approach to Chemical Library Screening at the Unmodified Adenosine-A3 Receptor in Living Cells” (Frontiers in Pharmacology, 2017).
Structures can show the parent of a compound that is named as a salt. Where two headings read alike, the source gives them in different places.

Molecular target: T1, human A3AR (Homo sapiens, UniProt P0DMS8)
T1 construct: expressed in transfected cells
T1 sequence (P0DMS8 1-318): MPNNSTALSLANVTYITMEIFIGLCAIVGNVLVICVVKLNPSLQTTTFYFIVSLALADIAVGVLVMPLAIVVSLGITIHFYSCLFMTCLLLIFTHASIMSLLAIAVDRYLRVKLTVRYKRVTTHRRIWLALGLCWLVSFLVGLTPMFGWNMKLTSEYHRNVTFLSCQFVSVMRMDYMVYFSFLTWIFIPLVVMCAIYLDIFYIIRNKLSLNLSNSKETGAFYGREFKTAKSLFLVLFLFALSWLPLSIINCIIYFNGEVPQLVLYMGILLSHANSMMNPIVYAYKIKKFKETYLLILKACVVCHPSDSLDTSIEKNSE
Assay: LOPAC library primary screen: single concentration (10 μM) inhibition of 25 nM CA200645 binding, PHERAstar FS

[1] = compounds tested at 10 µM, % of control wells (1% DMSO and 25 nM CA200645), whole live cells expressing the A3AR, mean ± SD, three experiments in duplicate
[2] = % of control wells (1% DMSO and 25 nM CA200645), compounds at 10 µM, whole live cells expressing the A3AR, mean ± SD, three experiments in duplicate

Structure (SMILES)	% 25 nM CA200645 binding [%]	other results
CCN(CC)CCCCNc1ncc2cc(-c3c(Cl)cccc3Cl)c(NC(=O)NC(C)(C)C)nc2n1 [PD-161570]	90.7 ± 9.1	
O=C(C1CCCCC1)N1CC(=O)N2CCc3ccccc3C2C1 (centres unmarked) [Praziquantel]	100.5 ± 15.0	
CCOC(=O)C1=C[C@]2(CC)CCCN3CCc4c(n1c1ccccc41)[C@@H]32 [Vinpocetine]	97.3 ± 11.5	
COc1cc2nc(N(C)CCCNC(=O)C3CCCO3)nc(N)c2cc1OC (centres unmarked) [Alfuzosin hydrochloride]	102.3 ± 4.9	
C[N+](C)(C)CCOP(=O)([O-])OP(=O)([O-])OC[C@H]1O[C@@H](n2ccc(N)nc2=O)[C@H](O)[C@@H]1O.[Na+]	102.5 ± 15.7	
Br.CO[C@H]1CC=C2CCN3CCC4=C(CC(=O)OC4)[C@]23C1 [Dihydro-beta-erythroidine hydrobromide]	94.0 ± 5.4	
CC[N+](C)(C)c1cccc(O)c1 [Edrophonium chloride]	88.1 ± 20.0	
CN1C(=O)CC[C@H]1c1cccnc1 [(-)-Cotinine]	106.5 ± 4.3	
C[N+]1(CCCCC[N+]2(C)CCCC2)CCCC1.O=C([O-])C(O)C(O)C(=O)O.O=C([O-])C(O)C(O)C(=O)O [Pentolinium di[L(+)-tartrate]]	106.3 ± 2.7	
Oc1cc2c(cc1O)CN(C(=S)NCCc1ccc(Cl)cc1)CCC2 [Capsazepine]		% 25 nM CA200645 binding [1]: 90.6 ± 11.8%
O=c1[nH]c(=O)n([C@H]2C[C@H](O)[C@@H](CO)O2)cc1Br [5-Bromo-2'-deoxyuridine]	101.6 ± 8.3	
O=c1n(CCCN2CCN(c3cccc(Cl)c3)CC2)nc2ccccn12 [Trazodone hydrochloride]	104.7 ± 11.3	
COCCOc1cc2nc[nH]c(=O)c2cc1OCCOC [CP-380736]	88.0 ± 4.4	
O=C(Nc1ccc([N+](=O)[O-])cc1Cl)c1cc(Cl)ccc1O [Niclosamide]	101.6 ± 22.5	
C=CC(N)CCC(=O)O (racemic) [(±)-gamma-Vinyl GABA]	96.9 ± 7.5	
N.N.[Cl][Pt][Cl] [Cisplatin]	69.0 ± 8.2	
Cl.c1ccc(CN2CCC3(CCCc4ccccc43)CC2)cc1 [L-687,384 hydrochloride]	108.6 ± 4.6	
CC(C)[C@H]1CN[C@H](C(=O)O)[C@H]1CC(=O)O [Dihydrokainic acid]	92.4 ± 30.0	
C[C@@H]1O[C@@H](O[C@H]2C[C@@H](O)[C@]3(CO)[C@H]4[C@H](O)C[C@]5(C)[C@@H](C6=CC(=O)OC6)CC[C@]5(O)[C@@H]4CC[C@]3(O)C2)[C@H](O)[C@H](O)[C@H]1O [Ouabain]	102.0 ± 3.5	
NC(=NCc1ccccc1)NC(=O)c1nc(Cl)c(N)nc1N [Benzamil hydrochloride]	95.3 ± 5.6	
C=CC[N+](C)(C)c1ccc(CCC(=O)CCc2ccc([N+](C)(C)CC=C)cc2)cc1.[Br-].[Br-] [BW 284c51]	100.9 ± 3.8	
CC(=O)OCC1=C(C(=O)O)N2C(=O)[C@@H](NC(=O)Cc3cccs3)[C@H]2SC1 [Cephalothin sodium]	104.6 ± 12.0	
COc1ccc2c(c[n+](C)c3c4cc5c(cc4ccc23)OCO5)c1OC [Chelerythrine chloride]	73.9 ± 3.7	

Structure (SMILES)	% 25 nM CA200645 binding [%]	other results
Nc1ccc(-c2ccc3ccccc3n2)cc1 [BF-170 hydrochloride]	78.6 ± 20.5	
O=C(O)COCCN1CCN(C(c2ccccc2)c2ccc(Cl)cc2)CC1 (centres unmarked) [Cetirizine dihydrochloride]	98.6 ± 19.3	
CCN(CC)CCCC(C)Nc1c2ccc(Cl)cc2nc2ccc(OC)cc12 (centres unmarked) [Quinacrine dihydrochloride]	98.2 ± 4.9	
CC[N+](CC)(CC)CC [Tetraethylammonium chloride]	94.7 ± 8.6	
CC(C)NNC(=O)c1ccncc1.O=P(O)(O)O [Iproniazid phosphate]	103.0 ± 5.6	
FC(F)(F)c1ccccc1-n1ccnc1 [1-[2-(Trifluoromethyl)phenyl]imidazole]	101.2 ± 9.4	
CN1CC[C@@]2(C)c3cc(OC(=O)Nc4ccccc4)ccc3N(C)[C@@H]12 [Phenserine]	81.1 ± 29.6	
O=C(O)C1=CCNCC1 [Isoguvacine hydrochloride]		% 25 nM CA200645 binding [2]: 87.4 ± 16.5%
CN1C2CCC1CC(OC(=O)c1c[nH]c3ccccc13)C2.Cl (centres unmarked)	109.6 ± 9.2	
O=C1N(c2ccccc2)c2ccccc2C1(Cc1ccncc1)Cc1ccncc1 [Linopirdine]		% 25 nM CA200645 binding [1]: 105.3 ± 3.6%
CC(=O)OCC(=O)[C@@]1(O)CC[C@H]2[C@@H]3CCC4=CC(=O)CC[C@]4(C)[C@H]3C(=O)C[C@@]21C [Cortisone 21-acetate]	92.1 ± 5.7	
O=C(O)Cc1ccc(O)c(O)c1 [3,4-Dihydroxyphenylacetic acid]	97.0 ± 9.9	
CCCN1CCC[C@@H]2Cc3nc(N)ncc3C[C@H]21.Cl.Cl [Quinelorane dihydrochloride]	105.7 ± 9.9	
COc1ccccc1N1CCN(CCN(C(=O)c2ccc(F)cc2)c2ccccn2)CC1.Cl.Cl [p-MPPF dihydrochloride]	117.8 ± 19.4	
CC1=C(/C=C/C(C)=C/C=C/C(C)=C\C(=O)O)C(C)(C)CCC1 [13-cis-retinoic acid]	85.2 ± 2.9	
CC(=O)[C@H]1CC[C@H]2[C@@H]3CC[C@H]4C[C@](C)(O)CC[C@]4(C)[C@H]3CC[C@]12C [Ganaxolone]	83.6 ± 13.4	
Cl.NCCC[C@](N)(C(=O)O)C(F)F (racemic)	103.2 ± 12.1	
N.N.N.N.N.N.N.N.N.N.N.N.N.N.[Cl-].[Cl-].[Cl-].[Cl-].[Cl-].[Cl-].[O-2].[O-2].[Ru+3].[Ru+3].[Ru+4] [Ruthenium red]	95.4 ± 2.3	
Cc1cccc(C(=O)NCN2CCN(c3ccccc3C#N)CC2)c1.O=C(O)/C=C\C(=O)O [PD 168,077 maleate]	92.4 ± 5.3	
CCCN1CCc2cccc3c2[C@H]1Cc1ccc(O)c(O)c1-3.Cl [R(-)-Propylnorapomorphine hydrochloride]	96.1 ± 7.1	
Cl.O=C(CCCCCN1CCN(c2ccccc2-c2ccccc2)CC1)NC1CCCc2ccccc21 (centres unmarked) [LP 12 hydrochloride hydrate]	93.7 ± 9.5	
CCn1ccnc1CC1COc2ccccc2O1 (centres unmarked) [Imiloxan hydrochloride]		% 25 nM CA200645 binding [2]: 97.3 ± 10.2%
CC[C@@H](C(N)=O)N1CCCC1=O [Levetiracetam]	102.2 ± 9.6	

Structure (SMILES)	% 25 nM CA200645 binding [%]	other results
Cc1nc2sccn2c(=O)c1CCN1CCC(=C(c2ccc(F)cc2)c2ccc(F)cc2)CC1 [Ritanserin]		% 25 nM CA200645 binding [2]: 79.4 ± 12.5%
O=c1c(O)c(-c2cc(O)c(O)c(O)c2)oc2cc(O)cc(O)c12 [Myricetin]	62.7 ± 9.0	
OCCN(CCO)c1nc(N2CCCCC2)c2nc(N(CCO)CCO)nc(N3CCCCC3)c2n1 [Dipyridamole]	78.8 ± 14.8	
CN1CCc2cccc(Cl)c2CC1 [SKF 86466]	103.0 ± 12.5	
NCCc1c[nH]c2ccccc12 [Tryptamine hydrochloride]	98.8 ± 5.7	
NCCCNCCSP(=O)(O)O [Amifostine]	94.6 ± 2.0	
N=C(N)c1ccc(N)cc1 [4-Aminobenzamidine dihydrochloride]		% 25 nM CA200645 binding [2]: 97.4 ± 8.5%
O=C(CCCN1CCC(O)(c2cccc(C(F)(F)F)c2)CC1)c1ccc(F)cc1 [Trifluperidol hydrochloride]	102.8 ± 9.3	
Cc1cccc(-c2[nH]ncc2-c2ccc3ncccc3n2)n1 [RepSox]	98.5 ± 5.4	
OCCN1CCN(CCCN2c3ccccc3C=Cc3ccccc32)CC1 [Opipramol dihydrochloride]	100.5 ± 7.4	
Oc1ccc2c3c1O[C@H]1c4[nH]c5ccccc5c4C[C@@]4(O)[C@@H](C2)N(CC2CC2)CC[C@]314 [Naltrindole hydrochloride]	111.0 ± 9.1	
Cc1cccc(C)c1NC(=O)C(C)N (centres unmarked) [Tocainide hydrochloride]	102.0 ± 15.0	
CNc1ncnc2c1ncn2[C@H]1C[C@H](OP(=O)(O)O)[C@@H](COP(=O)(O)O)O1 [MRS 2179]	108.4 ± 2.3	
Nc1nc(Cl)nc2c1ncn2[C@@H]1O[C@H](CO)[C@@H](O)[C@H]1O [2-CADO, reference compound]		% Total CA200645 binding: 51.0 ± 6.7%
N#C/C(=C\c1ccc(O)c(O)c1)C(=O)Nc1ccccc1 [Tyrphostin AG 494]	91.5 ± 7.4	
Cn1ccc2cc3c(cc21)CCN3C(=O)Nc1cccnc1 [SB 206553 hydrochloride]	60.7 ± 9.3	
CN(C)CCCN1c2ccccc2Sc2ccc(C(F)(F)F)cc21 [Triflupromazine hydrochloride]	99.0 ± 16.0	
COc1ccc2c(c1OC)C(=O)O[C@@H]2[C@H]1c2c(cc3c(c2OC)OCO3)CCN1C.Cl [Noscapine hydrchloride]	114.6 ± 20.4	
OC(CCN1CCCCC1)(c1ccccc1)C1CC2C=CC1C2 (centres unmarked) [Biperiden hydrochloride]	86.9 ± 6.4	
CC(C)(C)NCC(O)COc1cccc2[nH]c(=O)[nH]c12.Cl (racemic) [(±)-CGP-12177A hydrochloride]	114.1 ± 10.3	
CSC(=N)N.CSC(=N)N.O=S(=O)(O)O [S-Methylisothiourea hemisulfate]	112.2 ± 21.2	
CC(C)NCC(O)COc1cccc2[nH]ccc12 (centres unmarked) [Pindolol]	84.7 ± 11.8	
